Results published in PubChem BioAssay AID492982 (Sanford-Burnham Center for Chemical Genomics, 2010).
The source made the active and inactive calls.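 The calls were made as follows: active = mean EC50 below 10 µM; inactive = the rest.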

Target: Type-1 angiotensin II receptor (Homo sapiens) (UniProt P30556)
Test: AT1 receptor agonists, beta-arrestin recruitment, SAR follow-up, selectivity assay for APJ agonist project, cell-based, CHO-K1 PathHunter, luminescence, set 3 (AID 492982)
Conditions: CHO-K1 AGTR1 PathHunter beta-arrestin, 90 min

Type-1 angiotensin II receptor (Homo sapiens), sequence (P30556 whole entry, looked up): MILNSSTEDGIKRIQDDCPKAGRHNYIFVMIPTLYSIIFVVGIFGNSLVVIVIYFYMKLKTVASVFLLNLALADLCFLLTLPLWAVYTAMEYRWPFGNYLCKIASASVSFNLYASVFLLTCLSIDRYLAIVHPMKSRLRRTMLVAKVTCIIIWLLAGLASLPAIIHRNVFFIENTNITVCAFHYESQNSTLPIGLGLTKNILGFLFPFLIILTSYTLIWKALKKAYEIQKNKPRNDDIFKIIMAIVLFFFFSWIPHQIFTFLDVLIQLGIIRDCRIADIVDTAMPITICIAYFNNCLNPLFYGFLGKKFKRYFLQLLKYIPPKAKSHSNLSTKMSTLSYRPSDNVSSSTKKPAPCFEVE

CC1=CC(=O)C(C(C)C)=C/C1=N/OS(=O)(=O)c1ccc(F)cc1
EC50: > 79 µM (inactive)

CC1=CC(=O)C(C(C)C)=C/C1=N/OS(=O)(=O)c1ccc(C#N)cc1
EC50: > 79 µM (inactive)

CC1=CC(=O)C(C(C)C)=C/C1=N/OS(=O)(=O)c1ccc(C(C)C)cc1
EC50: > 79 µM (inactive)
